The values that follow come from patent US12180226B2, “Spirotricycle RIPK1 inhibitors and methods of uses thereof” (Merck Sharp & Dohme LLC, priority 2021, dated 2024).

SMILES strings stand for the structures. Where a name gives a salt, the structure may show the parent alone.

For orientation: EC50 means the concentration at which the effect is half-maximal.

RIPK1 (recombinant GST-RIPK1 kinase domain, residues 1-327), sequence (Q13546 1-327): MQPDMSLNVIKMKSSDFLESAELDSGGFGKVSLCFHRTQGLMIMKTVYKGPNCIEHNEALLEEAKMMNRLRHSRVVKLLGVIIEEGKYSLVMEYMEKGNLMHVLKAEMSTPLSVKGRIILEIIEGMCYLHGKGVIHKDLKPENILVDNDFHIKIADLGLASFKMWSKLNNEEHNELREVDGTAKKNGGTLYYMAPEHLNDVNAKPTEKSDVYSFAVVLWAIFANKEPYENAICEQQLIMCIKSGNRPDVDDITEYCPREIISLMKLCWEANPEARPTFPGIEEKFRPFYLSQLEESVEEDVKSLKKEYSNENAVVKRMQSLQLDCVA

This assay concerns the target RIPK1 (recombinant GST-RIPK1 kinase domain, residues 1-327) (Homo sapiens (Human), UniProt Q13546). In words: RIPK1-ADP-Glo Enzymatic Assay. The conditions noted are these: ADP-Glo; 25 nM GST-RIPK1, 300 μM ATP; assay lower limit ~25 nM; read-out: RIPK1 V0 Ec50. Format: biochemical. The method, boiled down:
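Enzyme from baculovirus-infected Sf21 cells, 25 nM final, was pre-incubated 30 min at ambient temperature with compound (ten-point, 1:3 dilution from 100000 nM, 1% DMSO), then reacted 150 min with 300 μM ATP and 3 μM dephosphorylated MBP. ADP was read by luminescence; EC50 from four-parameter fit.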
Background: ADP-Glo first removes unused ATP, then detects ADP through luciferase.
On to `COc1nc(N2CCC3(CC2)O[C@@H]2CC[C@@H](c4cc(F)cc(F)c4)N2C3=O)ncc1C#N` [Example 4.38, 2-[(5′S,7a′R)-5′-(3,5-difluorophenyl)-3′-oxotetrahydro-1H,3′H-spiro[piperidine-4,2′-pyrrolo[2,1-b] [1,3]oxazol]-1-yl]-4-methoxypyrimidine-5-carbonitrile], for which the EC50 is 12 nM.
As for `O=C(c1ccc(Cl)cc1F)N1CCC2(CC1)O[C@@H]1CC[C@@H](c3cc(F)cc(F)c3)N1C2=O` [Example 5.59, (5′S,7a′R)-1-(4-chloro-2-fluorobenzoyl)-5′-(3,5-difluorophenyl)tetrahydro-3′H-spiro[piperidine-4,2′-pyrrolo[2,1-b]oxazol]-3′-one], the EC50 is less than 25 nM.
Consider `COc1ccc2oc(N3CCC4(CC3)O[C@@H]3CC[C@@H](c5ccccc5)N3C4=O)nc2c1` [Example 4.160, (5′S,7a′R)-1-(5-methoxy-1,3-benzoxazol-2-yl)-5′-phenyltetrahydro-3′H-spiro[piperidine-4,2′-pyrrolo[2,1-b] [1,3]oxazol]-3′-one], for which the EC50 is 76.8 nM.
Regarding `CC1CC2(CCN1c1ncnc3ccnn13)O[C@@H]1CC[C@@H](c3cc(F)cc(F)c3)N1C2=O` (stereo partly drawn) [Example 4.213, (5′S,7a′R)-5′-(3,5-difluorophenyl)-2-methyl-1-(pyrazolo[1,5-a] [1,3,5]triazin-4-yl)tetrahydro-3′H-spiro[piperidine-4,2′-pyrrolo[2,1-b] [1,3]oxazol]-3′-one], the EC50 was less than 25 nM.
For `O=C1N2[C@@H](CC[C@H]2c2ccccc2)OC12CCN(c1cccc3ncnn13)CC2F` (single isomer, unassigned) [Example 13.18, (3[S or R], 4 [R or S], 5′S,7a′R)-1-([1,2,4]triazolo[1,5-a]pyridin-5-yl)-3-fluoro-5′-phenyltetrahydro-3′H-spiro[piperidine-4,2′-pyrrolo[2,1-b]oxazol]-3′-one, TFA salt] the value was less than 25 nM.
Regarding `O=C1N2[C@@H](CC[C@H]2c2ccccc2)OC12CCN(c1nc3ccccc3o1)CC2` [Example 4.154, (5′S,7a′R)-1-(1,3-benzoxazol-2-yl)-5′-phenyltetrahydro-3′H-spiro[piperidine-4,2′-pyrrolo[2,1-b] [1,3]oxazol]-3′-one], the EC50 came to 35.7 nM.
For `Cc1cc(C)cc(C(=O)N2CCC3(CC2)O[C@@H]2CC[C@@H](c4ccccc4)N2C3=O)c1` [Example 6.150, (5′S,7a′R)-1-(3,5-dimethylbenzene-1-carbonyl)-5′-phenyl-tetrahydro-3′H-spiro [piperidine-4,2′-pyrrolo[2,1-b][1,3]oxazol]-3′-one], the EC50 is 118 nM.
Under `COc1ccc(C(=O)N2CCC3(CC2)O[C@@H]2CC[C@@H](c4cc(F)cc(F)c4)N2C3=O)c(F)c1` [Example 5.58, (5′S,7a′R)-5′-(3,5-difluoro-phenyl)-1-(2-fluoro-4-methoxybenzoyl)tetra-hydro-3′H-spiro[piperidine-4,2′-pyrrolo[2,1-b]oxazol]-3'-one] stands 24.8 nM; under `N#Cc1cc(N2CCC3(CC2)O[C@@H]2CC[C@@H](c4cccc(F)c4)N2C3=O)ncn1` [Example 4.122, 6-[(5′S,7a′R)-5′-(3-fluorophenyl)-3′-oxotetrahydro-1H,3′H-spiro[piperidine-4,2′-pyrrolo[2,1-b] [1,3]oxazol]-1-yl]pyrimidine-4-carbonitrile], 35.6 nM.
With `O=C(c1cnn2c1CSCC2)N1CCC2(CC1)O[C@@H]1CC[C@@H](c3cc(F)cc(F)c3)N1C2=O` [Example 6.39, (5′S,7a′R)-5′-(3,5-difluorophenyl)-1-(6,7-dihydro-4H-pyrazolo-[5,1-c][1,4]thiazine-3-carbonyl)tetrahydro-3′H-spiro[piperidine-4,2′-pyrrolo[2,1-b] [1,3]oxazol]-3′-one], the EC50 was determined as 738 nM.
